{
  "source": "patent US20250375395A1",
  "about": "(priority 2016, published 2025)",
  "origin": "cited, not measured here",
  "conditions": "carbonic acid/sodium bicarbonate",
  "data": [
    {"compound": "O=C([O-])O.[Na+]", "note": "[sodium bicarbonate]", "values": [
      {"measurement": "pKa", "result": 6.4}
    ]}
  ]
}
